Data: patent US12697331B2, “Methods of use of T-type calcium channel modulators” (PRAXIS PRECISION MEDICINES, INC., priority 2020, dated 2026)
Where a name gives a salt, the structure may show the parent alone.

Experiments:
hCav3.3 [1] = target: T1, hCav3.3 (Homo sapiens, UniProt Q9P0X4); test: PatchXpress patch clamp, voltage dependent block (half-inactivated state, V0.5); type: cell-based; conditions: for Inhibition of hCav 3.3 peak current, voltage dependent block (percent inhibition), mean: half-inactivated state (V0.5)
T1 construct: expressed in transfected cells; host or cells: HEK-293 (cultured under G418 selection)
Description: (§1) The voltage dependence of calcium channel isoforms was determined by comparing the activity of resting (Tonic Block) and half-inactivated (Voltage Dependent Block) voltages across various concentrations of Formula (II). First, HEK-293 cells containing hCav3.1, hCav3.2, or hCav3.3 calcium channel isoforms were prepared by seeding at 2×10^6 cells per flask in culture for 2 days; the cells were then harvested at about 6×10^6 cells. Harvested cells were washed once in DPBS for approximately 30 minutes, and 1 mL of 1× (0.05%) Trypsin-EDTA was added, swirled, and allowed to sit on the cells for approximately 4 minutes. 10 mL of warmed DMEM high glucose media supplemented with 10% fetal bovine serum, 2 mM sodium pyruvate, 10 mM HEPES, and 400 μg/mL G418 was added, and the cells were triturated until a single cell suspension was […]. Cells were placed in a 250 mL centrifuge tube with 30 mL warmed media and gently rocked at 28° C. for approximately 1 hour. Cell aliquots of 5 mLs (1×10^6 cells) were then centrifuged at 100× for 2 minutes, and supernatant was removed. Next, 100 μl of external recording solution was added to the remaining cell pellet and triturated 20 times to achieve a single cell suspension.
(§2) Immediately prior to assay, Formula (II) was diluted with DMSO to 300× the designated final concentration. All studies were performed using the Molecular Devices PatchXpress automated patch clamp platform at room temperature.
(§3) Pharmacology was measured during Epoch 1. Percent inhibition was calculated as: 100*((([Step 2+Step 5]/2)−Step 3)/(Step 2+Step 5/2)), wherein Step 2 is the peak current measured at baseline, Step 5 is the current measured during the wash period, and Step 3 is the peak current measured during application of the compound. The average of the final 3 consecutive currents in each experimental procedure was used for all calculations. The concentration response curve was fit with a Hill equation to derive IC50, slope, minimum response, and maximum response fitting parameters.
To calculate the hCav3.1, hCav3.2, and hCav3.3 peak current from a half-inactivated state (voltage dependent block), currents were first evoked by depolarizing pulses to −25 mV (10 ms) from a non-inactivating holding potential (−120 mV) at a frequency of 0.1 Hz. After current amplitude became stable, the mid-point average of steady state inactivation was determined for each cell using a series of 9,900 ms conditioning steps to increasingly depolarize voltages (ranging from Vhold (−120 mV) to −40 mV) preceding a test pulse to −25 mV (10 ms) to establish the magnitude of inactivation. The holding command potential was then set to the voltage that produced approximately 50% inactivation (V0.5) using PatchXpress scripts. From this V0.5 potential, a voltage step to −25 mV (10 ms) was used to evoque peak current. The voltage was stepped to −120 mv (50 ms) to evoque tail currents and monitor cell integrity.
The effect of the compound on peak current amplitude was monitored using the voltage protocol described above and washed out after reaching steady state as determined by PatchXpress stability scripts. Washout was performed at the original holding potential of −120 mV to facilitate reversal of state-dependent interactions. Washout current for the calculation of inhibition was determined by resetting the holding potential to the previously determined half-inactivation potential (V0.5) and measuring peak current from this holding potential. Pharmacology was measured during Epoch 1, and percent inhibition was calculated as discussed above for tonic block.

[2] = Food effect: high-fat, high-calorie meal, single 20 mg dose; type: in vivo, human; conditions: single 20 mg oral dose
Description: The effect of a high-fat, high-calorie meal on the pharmacokinetics of a compound of formula (II) was evaluated in an open-label, sequential fashion following a single 20 mg dose of formulation 5 in participants who had previously received a 20 mg dose of formulation 5 under fasted conditions.

gamma band EEG power = test: qEEG: gamma band EEG power (eyes open / eyes closed); type: in vivo, human; conditions: Part B, beginning at 60 mg and continuing through to 120 mg
Description: It appears a maximal effect in gamma reduction was not achieved.
The eyes open (EO) and eyes closed (EC) gamma absolute power for each individual was also estimated at specific time points across the study days.

[3] = Within-participant escalating dose trial Part B: safety and tolerability (TEAEs); type: in vivo, human; conditions: titration 20 to 120 mg per day; no maximum tolerated dosage identified; hydrochloride
hCav3.1 = target: T2, hCav3.1 (Homo sapiens, UniProt O43497); test: PatchXpress patch clamp, tonic block (resting state, -120 mV); type: cell-based
T2 construct: expressed in transfected cells; host or cells: HEK-293 (cultured under G418 selection)
Description: as §1, §2
(§4) To determine the hCav3.1, hCav3.2, and hCav3.3 peak current from a resting, closed state (tonic block), currents were evokes by depolarizing pulses to −25 mV (10 ms) from −120 mV (a non-inactivated holding potential) at a frequency of 0.1 Hz. Peak current was defined as the peak inward current during Epoch 1 with no leak subtraction applied. Current stability was monitored, and the potency of each compound was determined using concentration response curves.
as §3

hCav3.3 [4] = target: T1, hCav3.3; test: as above; type: cell-based
Description: as §1, §2, §4, §3

hCav3.2 = target: T3, hCav3.2 (Homo sapiens, UniProt O95180); test: as above; type: cell-based
T3 construct: expressed in transfected cells; host or cells: HEK-293 (cultured under G418 selection)
Description: as §1, §2, §4, §3

[5] = system: sigma band EEG power during NREM sleep; test: 24-hour EEG/PSG: sigma band EEG power during NREM sleep; type: in vivo, human
Description: The effects of multiple doses of a wider dose range (Part A: 5, 10, 20 mg; Part B: 60, 80, 100, 120 mg) on sigma band EEG power during NREM sleep were also evaluated as part of the protocol described in Example 11, above. 24-hour EEG/PSG recordings were performed the day before dosing (baseline day) and after dosing on Days 4, 8, and 12 (for Part A) or Days 10, 17, 24, and 31 (for Part B). Part B also included placebo-treated participants for statistical comparisons.

T2 sequence (O43497 whole entry): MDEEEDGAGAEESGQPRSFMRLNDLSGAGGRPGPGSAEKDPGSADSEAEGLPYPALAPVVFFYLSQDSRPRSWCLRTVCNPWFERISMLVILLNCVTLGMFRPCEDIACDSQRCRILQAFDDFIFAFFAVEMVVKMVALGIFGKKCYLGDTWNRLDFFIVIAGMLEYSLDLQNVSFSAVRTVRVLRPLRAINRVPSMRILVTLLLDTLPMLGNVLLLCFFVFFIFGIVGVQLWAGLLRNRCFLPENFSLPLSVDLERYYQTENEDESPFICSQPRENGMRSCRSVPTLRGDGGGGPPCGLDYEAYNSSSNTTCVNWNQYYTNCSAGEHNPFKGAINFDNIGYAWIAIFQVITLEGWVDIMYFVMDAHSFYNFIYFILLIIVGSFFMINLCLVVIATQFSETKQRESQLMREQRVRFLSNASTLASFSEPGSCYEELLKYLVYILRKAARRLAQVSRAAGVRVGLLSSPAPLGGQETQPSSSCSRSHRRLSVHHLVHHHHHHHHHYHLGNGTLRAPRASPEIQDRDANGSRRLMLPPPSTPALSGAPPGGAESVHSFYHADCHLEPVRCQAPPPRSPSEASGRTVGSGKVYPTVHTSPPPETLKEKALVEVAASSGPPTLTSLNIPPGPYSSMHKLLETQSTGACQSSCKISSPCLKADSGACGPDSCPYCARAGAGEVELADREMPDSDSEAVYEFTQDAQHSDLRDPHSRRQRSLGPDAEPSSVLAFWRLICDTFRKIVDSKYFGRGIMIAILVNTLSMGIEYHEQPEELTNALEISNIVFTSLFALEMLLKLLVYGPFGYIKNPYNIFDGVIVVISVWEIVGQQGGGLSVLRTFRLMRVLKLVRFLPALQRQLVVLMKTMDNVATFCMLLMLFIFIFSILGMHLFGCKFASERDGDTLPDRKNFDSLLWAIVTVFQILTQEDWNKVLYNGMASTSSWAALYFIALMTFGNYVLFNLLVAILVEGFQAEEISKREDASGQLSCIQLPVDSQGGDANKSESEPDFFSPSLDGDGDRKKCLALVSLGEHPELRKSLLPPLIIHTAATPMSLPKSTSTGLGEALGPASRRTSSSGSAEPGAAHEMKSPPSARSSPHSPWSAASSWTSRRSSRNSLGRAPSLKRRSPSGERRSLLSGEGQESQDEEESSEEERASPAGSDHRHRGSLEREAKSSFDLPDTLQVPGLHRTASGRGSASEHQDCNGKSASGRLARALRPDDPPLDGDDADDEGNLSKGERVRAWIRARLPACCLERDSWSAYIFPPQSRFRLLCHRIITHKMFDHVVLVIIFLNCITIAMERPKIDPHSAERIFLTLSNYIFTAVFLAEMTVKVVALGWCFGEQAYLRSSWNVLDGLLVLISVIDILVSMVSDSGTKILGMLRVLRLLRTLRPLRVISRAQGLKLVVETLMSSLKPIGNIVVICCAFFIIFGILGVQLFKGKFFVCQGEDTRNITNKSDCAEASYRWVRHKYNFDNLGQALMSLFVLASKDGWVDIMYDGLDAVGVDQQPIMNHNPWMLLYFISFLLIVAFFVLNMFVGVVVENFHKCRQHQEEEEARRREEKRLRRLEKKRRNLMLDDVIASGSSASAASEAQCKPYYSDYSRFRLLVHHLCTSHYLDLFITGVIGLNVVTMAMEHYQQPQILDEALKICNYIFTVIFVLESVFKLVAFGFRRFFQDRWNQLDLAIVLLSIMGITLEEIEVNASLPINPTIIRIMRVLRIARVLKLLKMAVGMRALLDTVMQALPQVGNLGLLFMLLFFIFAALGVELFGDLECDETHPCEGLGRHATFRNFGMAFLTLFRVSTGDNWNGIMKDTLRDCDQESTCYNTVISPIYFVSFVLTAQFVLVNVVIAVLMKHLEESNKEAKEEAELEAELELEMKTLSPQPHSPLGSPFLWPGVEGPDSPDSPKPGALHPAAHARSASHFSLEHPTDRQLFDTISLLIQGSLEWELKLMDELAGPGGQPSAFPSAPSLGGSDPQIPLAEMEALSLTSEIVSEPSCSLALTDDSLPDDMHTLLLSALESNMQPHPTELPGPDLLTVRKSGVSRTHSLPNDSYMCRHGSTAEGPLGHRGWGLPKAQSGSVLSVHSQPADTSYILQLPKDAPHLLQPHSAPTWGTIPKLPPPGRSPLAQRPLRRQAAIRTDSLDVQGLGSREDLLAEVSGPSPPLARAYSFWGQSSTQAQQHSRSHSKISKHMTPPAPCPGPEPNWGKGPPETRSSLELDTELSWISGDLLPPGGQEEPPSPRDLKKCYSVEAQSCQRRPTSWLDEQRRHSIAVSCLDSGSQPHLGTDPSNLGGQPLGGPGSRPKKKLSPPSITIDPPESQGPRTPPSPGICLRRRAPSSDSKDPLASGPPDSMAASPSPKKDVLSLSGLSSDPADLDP
T1 sequence (Q9P0X4 whole entry): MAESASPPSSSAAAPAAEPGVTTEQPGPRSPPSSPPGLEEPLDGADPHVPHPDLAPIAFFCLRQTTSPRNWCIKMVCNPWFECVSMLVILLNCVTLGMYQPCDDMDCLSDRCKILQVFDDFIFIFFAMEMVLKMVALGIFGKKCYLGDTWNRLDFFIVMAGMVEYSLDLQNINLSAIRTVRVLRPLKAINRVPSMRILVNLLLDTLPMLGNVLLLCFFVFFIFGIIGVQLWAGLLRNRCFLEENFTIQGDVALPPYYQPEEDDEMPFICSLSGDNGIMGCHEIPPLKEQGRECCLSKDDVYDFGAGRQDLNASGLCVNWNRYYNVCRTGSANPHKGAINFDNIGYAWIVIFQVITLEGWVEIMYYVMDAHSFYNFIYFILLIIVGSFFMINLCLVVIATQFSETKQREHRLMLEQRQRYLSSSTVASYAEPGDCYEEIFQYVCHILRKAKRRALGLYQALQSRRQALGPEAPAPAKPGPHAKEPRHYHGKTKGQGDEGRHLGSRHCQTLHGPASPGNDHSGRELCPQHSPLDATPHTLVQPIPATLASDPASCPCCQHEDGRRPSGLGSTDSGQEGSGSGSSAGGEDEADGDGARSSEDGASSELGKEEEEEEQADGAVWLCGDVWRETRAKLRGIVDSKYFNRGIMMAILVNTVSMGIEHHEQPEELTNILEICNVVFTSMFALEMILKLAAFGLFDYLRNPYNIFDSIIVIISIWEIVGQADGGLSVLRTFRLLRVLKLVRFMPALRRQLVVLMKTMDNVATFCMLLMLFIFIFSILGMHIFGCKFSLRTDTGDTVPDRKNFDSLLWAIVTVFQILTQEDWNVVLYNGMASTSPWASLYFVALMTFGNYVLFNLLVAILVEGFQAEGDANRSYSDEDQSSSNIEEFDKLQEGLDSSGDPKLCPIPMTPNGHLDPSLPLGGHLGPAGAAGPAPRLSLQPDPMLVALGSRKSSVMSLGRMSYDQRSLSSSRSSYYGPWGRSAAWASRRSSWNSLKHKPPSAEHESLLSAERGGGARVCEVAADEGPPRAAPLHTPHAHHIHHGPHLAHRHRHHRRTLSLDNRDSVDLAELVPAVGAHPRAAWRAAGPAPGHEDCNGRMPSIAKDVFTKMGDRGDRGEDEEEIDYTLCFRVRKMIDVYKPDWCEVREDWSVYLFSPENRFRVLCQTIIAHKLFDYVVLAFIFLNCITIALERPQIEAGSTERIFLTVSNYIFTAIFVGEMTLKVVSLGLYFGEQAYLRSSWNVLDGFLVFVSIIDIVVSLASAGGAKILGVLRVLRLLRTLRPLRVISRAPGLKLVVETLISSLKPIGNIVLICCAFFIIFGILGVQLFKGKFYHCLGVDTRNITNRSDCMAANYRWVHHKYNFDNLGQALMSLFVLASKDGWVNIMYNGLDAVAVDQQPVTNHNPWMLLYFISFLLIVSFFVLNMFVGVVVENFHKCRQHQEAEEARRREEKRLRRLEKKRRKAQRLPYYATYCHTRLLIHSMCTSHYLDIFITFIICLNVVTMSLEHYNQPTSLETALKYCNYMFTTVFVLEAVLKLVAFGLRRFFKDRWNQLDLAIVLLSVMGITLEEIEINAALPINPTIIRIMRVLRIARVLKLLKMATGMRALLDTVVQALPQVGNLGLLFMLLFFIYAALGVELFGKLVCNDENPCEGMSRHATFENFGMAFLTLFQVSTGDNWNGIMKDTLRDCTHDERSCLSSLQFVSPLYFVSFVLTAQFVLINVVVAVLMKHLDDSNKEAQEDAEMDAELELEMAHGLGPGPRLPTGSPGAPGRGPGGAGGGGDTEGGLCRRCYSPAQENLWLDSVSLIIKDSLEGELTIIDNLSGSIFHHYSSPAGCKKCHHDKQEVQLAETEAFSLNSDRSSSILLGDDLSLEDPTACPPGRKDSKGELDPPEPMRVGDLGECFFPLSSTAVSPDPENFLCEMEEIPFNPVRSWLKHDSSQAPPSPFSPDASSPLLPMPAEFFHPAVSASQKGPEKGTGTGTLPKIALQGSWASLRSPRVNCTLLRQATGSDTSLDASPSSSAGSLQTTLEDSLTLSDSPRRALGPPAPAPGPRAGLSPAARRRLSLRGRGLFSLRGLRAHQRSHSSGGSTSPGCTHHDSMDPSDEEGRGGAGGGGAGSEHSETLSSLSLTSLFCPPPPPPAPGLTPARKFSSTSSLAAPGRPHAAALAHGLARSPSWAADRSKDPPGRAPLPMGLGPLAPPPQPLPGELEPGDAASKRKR

CC(C)(C)NC(=O)CN1CCC(CNC(=O)c2cc(F)cc(Cl)c2)CC1 [compound of formula (II), N-((1-(2-(tert-butylamino)-2-oxoethyl)piperidin-4-yl)methyl)-3-chloro-5-fluorobenzamide hydrochloride]
Inhibition of hCav 3.3 peak current, voltage dependent block (percent inhibition), mean (hCav3.3 [1]; 0.03 μm): 12.9 (8) | Inhibition of hCav 3.3 peak current, voltage dependent block (percent inhibition), mean (hCav3.3 [1]; 0.09 μm): 26.9 (17) | Inhibition of hCav 3.3 peak current, voltage dependent block (percent inhibition), mean (hCav3.3 [1]; 0.27 μm): 58.7 (19) | Inhibition of hCav 3.3 peak current, voltage dependent block (percent inhibition), mean (hCav3.3 [1]; 0.91 μm): 76.9 (20) | Inhibition of hCav 3.3 peak current, voltage dependent block (percent inhibition), mean (hCav3.3 [1]; 2.74 μm): 89.4 (20) | Inhibition of hCav 3.3 peak current, voltage dependent block (percent inhibition), mean (hCav3.3 [1]; 9.13 μm): 92.9 (4) | tonic block/voltage dependent block (TB/VDB) ratio (hCav3.3 [1]; hCav3.3): 4.0 | AUClast Ratio (fed/fasted) [2]: 1.14 | AUC∞ Ratio (fed/fasted) [2]: 1.15 | Cmax Ratio (fed/fasted) [2]: 1.49 | Effect on gamma band EEG power (gamma band EEG power): dose-related reduction | Dose levels well-tolerated with a titrated dosing schedule [3]: up to 120 mg per day | Inhibition of peak current, tonic block, Mean (hCav3.1; 0.09 μm): 8.8 (7) % | Inhibition of peak current, tonic block, Mean (hCav3.1; 0.27 μm): 29.4 (11) % | Inhibition of peak current, tonic block, Mean (hCav3.1; 0.91 μm): 50.2 (9) % | Inhibition of peak current, tonic block, Mean (hCav3.1; 2.74 μm): 67.5 (10) % | Inhibition of peak current, tonic block, Mean (hCav3.1; 9.13 μm): 76.6 (9) % | Inhibition of peak current, tonic block, Mean (hCav3.1; 27.40 μm): 89.5 (4) % | Inhibition of peak current, tonic block, Mean (hCav3.3 [4]; 0.09 μm): 3.8 (7) % | Inhibition of peak current, tonic block, Mean (hCav3.3 [4]; 0.27 μm): 23.0 (11) % | Inhibition of peak current, tonic block, Mean (hCav3.3 [4]; 0.91 μm): 54.5 (5) % | Inhibition of peak current, tonic block, Mean (hCav3.3 [4]; 2.74 μm): 77.1 (6) % | Inhibition of peak current, tonic block, Mean (hCav3.3 [4]; 9.13 μm): 92.1 (5) % | Inhibition of peak current, tonic block, Mean (hCav3.3 [4]; 27.40 μm): 94.6 (5) % | Inhibition of peak current, tonic block, Mean (hCav3.2; 0.09 μm): 12.6 (4) % | Inhibition of peak current, tonic block, Mean (hCav3.2; 0.27 μm): 37.1 (6) % | Inhibition of peak current, tonic block, Mean (hCav3.2; 0.91 μm): 55.1 (13) % | Inhibition of peak current, tonic block, Mean (hCav3.2; 2.74 μm): 76.2% | Inhibition of peak current, tonic block, Mean (hCav3.2; 9.13 μm): 89.7% | Inhibition of peak current, tonic block, Mean (hCav3.2; 27.40 μm): 96.9% | Inhibition of peak current, tonic block, Mean (hCav3.2; 91.33 μm): 98.2% | Effect on NREM sigma band as compared to a placebo control ([5]; 20 mg tablet and 40 mg tablet (FIG. 12)): decrease | NREM sigma power, Difference Ratio Formula (II) v. Placebo ([5]; Day 10 (60 mg), Part B): 0.550 | Dose at which the decrease in sigma band EEG power plateaued ([5]; Part B, relative to placebo-treated subjects): 80 mg
